Values quoted from earlier work, collected in patent publication US6750247B2, “Sponge-derived terpenoids and methods of use” (Galileo Laboratories, Inc., priority 2001, dated 2004).

Molecular target: T1, lipoxygenase (Homo sapiens, UniProt P09917)
T1 sequence (P09917 1-674): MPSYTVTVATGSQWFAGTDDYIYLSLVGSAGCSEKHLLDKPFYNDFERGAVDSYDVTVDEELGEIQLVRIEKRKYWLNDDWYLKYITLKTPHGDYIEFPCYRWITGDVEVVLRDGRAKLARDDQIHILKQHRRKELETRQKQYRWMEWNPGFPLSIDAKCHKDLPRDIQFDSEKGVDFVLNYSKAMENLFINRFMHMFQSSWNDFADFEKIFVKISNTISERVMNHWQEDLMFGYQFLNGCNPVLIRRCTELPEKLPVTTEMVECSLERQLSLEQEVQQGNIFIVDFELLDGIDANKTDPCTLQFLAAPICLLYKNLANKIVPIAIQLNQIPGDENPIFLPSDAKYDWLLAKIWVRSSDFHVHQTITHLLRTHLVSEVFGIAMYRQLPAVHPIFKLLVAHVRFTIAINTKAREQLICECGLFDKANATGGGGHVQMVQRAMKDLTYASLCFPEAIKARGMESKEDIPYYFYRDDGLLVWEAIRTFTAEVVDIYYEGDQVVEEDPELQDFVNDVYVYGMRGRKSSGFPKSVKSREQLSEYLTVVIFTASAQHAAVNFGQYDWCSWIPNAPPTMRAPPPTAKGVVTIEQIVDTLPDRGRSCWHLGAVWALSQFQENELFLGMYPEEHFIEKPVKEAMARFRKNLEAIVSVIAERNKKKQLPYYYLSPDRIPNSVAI
Settings: Cabre et al., Inflamm. Res. 1996; cited from earlier work

CC1=C(CC/C(C)=C/CCC2=CC[C@H](C3=CC(=O)O[C@H]3O)O[C@H]2O)C(C)(C)CCC1 [manoalide]
lipoxygenase inhibitory properties: no lipoxygenase inhibitory properties
